From article PMC8528214 (RSC Medicinal Chemistry, 2021)

What was measured:
[1] = test system: NDM-1-expressing K. pneumoniae (T2301); test: Growth inhibition assay; conditions: imipenem alone at 8 μg mL−1 (0.5× MIC)
collagenase H (ColH) = conditions: cited from earlier work; for ColH inhibitory activity: tested in their thiocarbamate form
[2] = test system: Galleria mellonella larvae infection model; conditions: cited from earlier work
MMP-8 = MMP-8 (Homo sapiens, UniProt P22894); test: MMP in vitro inhibition assay, MMP-8; format: biochemical
MMP-8, sequence (P22894 101-467): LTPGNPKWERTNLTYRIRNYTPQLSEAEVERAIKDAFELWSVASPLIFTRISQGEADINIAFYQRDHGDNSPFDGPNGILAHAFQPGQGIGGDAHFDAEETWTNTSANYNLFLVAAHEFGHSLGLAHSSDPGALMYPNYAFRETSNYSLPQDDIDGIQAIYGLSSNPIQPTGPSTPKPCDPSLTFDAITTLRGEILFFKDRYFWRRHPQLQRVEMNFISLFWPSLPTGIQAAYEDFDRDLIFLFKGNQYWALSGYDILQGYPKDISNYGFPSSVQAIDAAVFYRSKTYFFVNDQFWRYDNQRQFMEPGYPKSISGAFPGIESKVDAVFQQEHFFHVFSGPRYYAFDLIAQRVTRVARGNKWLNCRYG

HDAC-8 = target: T1, HDAC-8 (Homo sapiens, UniProt Q9BY41); test: HDAC in vitro inhibition assay; format: biochemical
T1 sequence (Q9BY41 1-377): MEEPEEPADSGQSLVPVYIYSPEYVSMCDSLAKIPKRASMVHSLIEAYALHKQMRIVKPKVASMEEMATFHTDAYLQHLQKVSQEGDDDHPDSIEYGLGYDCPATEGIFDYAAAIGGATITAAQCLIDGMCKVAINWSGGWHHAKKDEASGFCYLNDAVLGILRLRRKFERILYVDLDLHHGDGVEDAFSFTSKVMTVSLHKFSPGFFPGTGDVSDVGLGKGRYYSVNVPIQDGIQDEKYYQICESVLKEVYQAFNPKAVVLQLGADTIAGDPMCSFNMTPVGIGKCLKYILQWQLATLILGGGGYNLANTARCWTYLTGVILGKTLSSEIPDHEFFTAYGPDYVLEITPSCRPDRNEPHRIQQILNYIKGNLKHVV

HEK293 = conditions: at 100 μM; cited from earlier work
zebrafish embryos = conditions: cited from earlier work
MMP-1 = target: T2, MMP-1 (Homo sapiens, UniProt P03956); test: MMP in vitro inhibition assay, MMP-1; format: biochemical
T2 sequence (P03956 100-469): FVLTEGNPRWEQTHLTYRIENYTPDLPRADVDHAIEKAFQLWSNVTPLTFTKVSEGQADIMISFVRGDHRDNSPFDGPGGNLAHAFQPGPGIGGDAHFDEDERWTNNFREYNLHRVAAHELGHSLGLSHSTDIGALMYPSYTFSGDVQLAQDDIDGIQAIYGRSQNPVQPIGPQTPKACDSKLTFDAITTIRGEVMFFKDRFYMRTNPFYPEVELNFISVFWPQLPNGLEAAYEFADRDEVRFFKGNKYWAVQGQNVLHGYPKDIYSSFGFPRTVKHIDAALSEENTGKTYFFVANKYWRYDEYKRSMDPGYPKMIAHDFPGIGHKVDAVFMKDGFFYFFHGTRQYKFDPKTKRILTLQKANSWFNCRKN

HepG2 = conditions: at 100 μM; cited from earlier work
A549 = conditions: at 100 μM; cited from earlier work
MMP-2 = target: T3, MMP-2 (Homo sapiens, UniProt P08253); test: MMP in vitro inhibition assay, MMP-2; format: biochemical
T3 sequence (P08253 110-660): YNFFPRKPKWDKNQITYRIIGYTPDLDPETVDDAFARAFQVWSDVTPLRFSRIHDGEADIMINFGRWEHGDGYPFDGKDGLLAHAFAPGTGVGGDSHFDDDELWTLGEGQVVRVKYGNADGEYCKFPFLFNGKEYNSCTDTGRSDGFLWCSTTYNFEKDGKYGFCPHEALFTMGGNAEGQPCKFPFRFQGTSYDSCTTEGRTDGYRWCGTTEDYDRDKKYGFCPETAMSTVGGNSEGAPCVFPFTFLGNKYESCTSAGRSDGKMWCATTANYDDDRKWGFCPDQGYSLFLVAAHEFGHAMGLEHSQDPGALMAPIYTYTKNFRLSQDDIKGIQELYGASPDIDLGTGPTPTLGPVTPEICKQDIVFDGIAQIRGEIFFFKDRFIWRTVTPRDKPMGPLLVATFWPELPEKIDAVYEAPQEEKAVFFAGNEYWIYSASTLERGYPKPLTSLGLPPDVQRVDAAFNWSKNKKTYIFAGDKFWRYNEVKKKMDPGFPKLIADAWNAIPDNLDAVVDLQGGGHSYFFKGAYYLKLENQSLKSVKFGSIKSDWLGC

MMP-14 = MMP-14 (Homo sapiens, UniProt P50281); test: MMP in vitro inhibition assay, MMP-14; format: biochemical
MMP-3 = MMP-3 (Homo sapiens, UniProt P08254); test: MMP in vitro inhibition assay, MMP-3; format: biochemical
MMP-3, sequence (P08254 100-477): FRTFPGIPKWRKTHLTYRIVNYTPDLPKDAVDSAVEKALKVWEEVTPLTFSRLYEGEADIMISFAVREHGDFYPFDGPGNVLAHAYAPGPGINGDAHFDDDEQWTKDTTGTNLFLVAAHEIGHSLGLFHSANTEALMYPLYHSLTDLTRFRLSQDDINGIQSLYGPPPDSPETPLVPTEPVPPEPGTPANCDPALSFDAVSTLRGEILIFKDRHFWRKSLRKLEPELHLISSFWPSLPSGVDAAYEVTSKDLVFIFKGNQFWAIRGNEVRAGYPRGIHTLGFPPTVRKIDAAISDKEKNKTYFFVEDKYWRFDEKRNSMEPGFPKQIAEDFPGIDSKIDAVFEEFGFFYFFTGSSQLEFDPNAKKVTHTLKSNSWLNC

HDAC-3 = HDAC-3 (Homo sapiens, UniProt O15379); format: biochemical
HDAC-3, sequence (O15379 whole entry): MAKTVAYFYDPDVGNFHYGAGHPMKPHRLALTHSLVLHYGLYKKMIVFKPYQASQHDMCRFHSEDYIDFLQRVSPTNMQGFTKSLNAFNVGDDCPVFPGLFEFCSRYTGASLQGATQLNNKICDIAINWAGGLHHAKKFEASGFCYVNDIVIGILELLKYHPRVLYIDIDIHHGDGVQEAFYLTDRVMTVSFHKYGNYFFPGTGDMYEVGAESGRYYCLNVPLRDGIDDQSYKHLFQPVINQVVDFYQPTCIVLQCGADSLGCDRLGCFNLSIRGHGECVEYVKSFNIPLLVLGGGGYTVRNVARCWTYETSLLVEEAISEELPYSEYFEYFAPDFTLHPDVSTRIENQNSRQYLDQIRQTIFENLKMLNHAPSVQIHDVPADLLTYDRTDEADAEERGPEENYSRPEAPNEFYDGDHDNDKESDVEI
HDAC-3, sequence (Q9Y618 395-489 partner limits assumed): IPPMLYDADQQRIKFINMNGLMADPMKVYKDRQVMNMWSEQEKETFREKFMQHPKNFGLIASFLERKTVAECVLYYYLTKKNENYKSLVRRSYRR

MMP-7 = target: T4, MMP-7 (Homo sapiens, UniProt P09237); test: MMP in vitro inhibition assay, MMP-7; format: biochemical
T4 sequence (P09237 95-267): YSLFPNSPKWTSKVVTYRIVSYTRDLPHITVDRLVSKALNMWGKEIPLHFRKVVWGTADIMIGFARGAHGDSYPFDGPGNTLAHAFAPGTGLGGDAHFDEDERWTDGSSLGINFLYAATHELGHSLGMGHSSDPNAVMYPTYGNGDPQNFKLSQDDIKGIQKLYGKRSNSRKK

C[C@@H](O)[C@H]1C(=O)N2C(C(=O)O)=C(SCCNC=N)C[C@H]12 [imipenem]
Growth of imipenem-treated bacteria vs imipenem-free control after 24 hours [1]: no relevant differences

CC(=O)c1ccc(NC(=O)CS)cc1 [Compound 28]
ColH inhibitory potency (collagenase H (ColH)): nanomolar

O=C(CS)Nc1ccc(Cl)c(Cl)c1 [Compound 1]
in vivo efficacy [2]: in vivo efficacy | inhibition at 100 μM, MMP-8 (MMP-8; 100 μM): no inhibition | inhibition at 100 µM (MMP-8; read-out: inhibition at 100 μM, MMP-8): ≤ 10% | inhibition at 100 μM, HDAC-8 (HDAC-8): no inhibition | cytotoxicity against HEK293 (HEK293): did not show any cytotoxicity | maximum tolerated concentration (MTC) (zebrafish embryos): 10 µM | inhibition at 100 μM, MMP-1 (MMP-1; 100 μM): no inhibition | inhibition at 100 µM (MMP-1; read-out: inhibition at 100 μM, MMP-1): ≤ 10% | cytotoxicity against HepG2 (HepG2): did not show any cytotoxicity | cytotoxicity against A549 (A549): did not show any cytotoxicity | inhibition at 100 μM, MMP-2 (MMP-2; 100 μM): no inhibition | inhibition at 100 µM (MMP-2; read-out: inhibition at 100 μM, MMP-2): ≤ 10% | inhibition at 100 μM, MMP-14 (MMP-14; 100 μM): no inhibition | inhibition at 100 µM (MMP-14; read-out: inhibition at 100 μM, MMP-14): ≤ 10% | inhibition at 100 μM, MMP-3 (MMP-3; 100 μM): no inhibition | inhibition at 100 µM (MMP-3; read-out: inhibition at 100 μM, MMP-3): ≤ 10% | inhibition at 100 μM, HDAC-3 (HDAC-3): no inhibition | ColH inhibitory activity (collagenase H (ColH)): micromolar activities | inhibition at 100 μM, MMP-7 (MMP-7; 100 μM): no inhibition | inhibition at 100 µM (MMP-7; read-out: inhibition at 100 μM, MMP-7): ≤ 10%

O=C(CS)Nc1ccccc1Cl [Compound 26]
ColH inhibitory activity (collagenase H (ColH)): micromolar activities
